Laboratory results as given in patent US6756374B2, “Diaminothiazoles having antiproliferative activity” (Hoffmann-La Roche Inc., priority 2001, dated 2004).

Key:
human cyclin D1-CDK4 = human cyclin D1-CDK4 (Homo sapiens, UniProt P11802); experiment: FlashPlate kinase assay, cyclin D1-CDK4; assay type: biochemical; conditions: Rb protein substrate, 1 μM ATP
Experimental: (§1) To determine inhibition of Cdk4, Cdk2 and Cdk1 activity, kinase assays were conducted using FlashPlate™ assays (NEN™-Life Science Products). FlashPlate assays were performed using recombinant human cyclin B-CDK1, human cyclin E-CDK2 or human cyclin D1-CDK4 complexes. GST-cyclinE (GST-cycE), CDK2, GST-cyclinB (GST-cycB), CDK1, GST-CDK4 and cyclin D1 (cycD1) cDNA clones in baculovirus vectors were provided by Dr. W. Harper at the Baylor College of Medicine, Houston, Tex.
(§2) The expression of the 62Kd protein was under the control of an IPTG inducible promoter in an M15 E. coli strain. Cells were lysed by sonication and purification was carried out by binding lysates at pH 8.0 to a Ni-chelated agarose column pretreated with 1 mM imidazole. The resin was then washed several times with incrementally decreasing pH buffers to pH 6.0, and eluted with 500 mM imidazole. Eluted protein was dialysed against 20 mM HEPES pH 7.5, 30% glycerol, 200 mM NaCl, and 1 mM DTT. Purified Rb fusion protein stocks were quantitated for protein concentration, aliquoted, and stored at −70° C.
(§3) For all three kinase assays reported herein, 96-well FlashPlates were coated with Rb protein at 10 μg/ml, using 100 μl per well. Plates were incubated at 4° C. overnight or at room temperature for 3 hours on a shaker. To control for nonspecific phosphorylation, one row of wells was coated with 100 μl/well coating buffer (20 mM HEPES, 0.2 M NaCl). Plates were then washed twice with wash buffer (0.01% Tween 20 in phosphate-buffered saline). Compounds to be tested (“test compounds”) were added to the wells at 5×final concentration. Reactions were initiated by immediate addition of 40 μl reaction mix (25 mM HEPES, 20 mM MgCl2, 0.002% Tween 20, 2 mM DTT, 1 μM ATP, 4 nM ^33P-ATP) and a sufficient amount of enzyme to give counts that were at least 10-fold above background. Plates were incubated at room temperature on a shaker for 30 minutes. Plates were washed four times with the wash buffer, sealed, and counted on the TopCount scintillation counter (Packard Instrument Co., Downers Grove, Ill.]. The percent inhibition of Rb phosphorylation, which is a measure of the inhibition of CDK activity, was determined according to the following formula: [formula]
(§4) where “test compound” refers to the average counts per minute of the test duplicates, “nonspecific” refers to the average counts per minute when no CyclinD/Cdk4, etc., was added, and “total” refers to the average counts per minute when no compound was added.

human cyclin E-CDK2 = human cyclin E-CDK2 (Homo sapiens, UniProt P24941); experiment: FlashPlate kinase assay, cyclin E-CDK2; assay type: biochemical; conditions: Rb protein substrate, 1 μM ATP
Experimental: as §1, §2, §3, §4

human cyclin B-CDK1 = human cyclin B-CDK1 (Homo sapiens, UniProt P06493); experiment: FlashPlate kinase assay, cyclin B-CDK1; assay type: biochemical; conditions: Rb protein substrate, 1 μM ATP
Experimental: as §1, §2, §3, §4

HCT116 = experiment: Tetrazolium dye (MTT) proliferation assay; assay type: cell-based; conditions: Homo sapiens, HCT-116; HCT116 colorectal carcinoma cell line
Experimental: The cell line used was HCT116, a colorectal carcinoma cell line obtained from the American Type Cell Culture Collection (ATCC;
Rockville, Md.). The cells were grown in McCoy's 5A medium supplemented with 10% FCS and L-glutamine.
Cells were plated at the appropriate seeding density to give logarithmic growth over the course of the assay in a 96-well tissue culture plate. Plates were incubated overnight at 37° C. in a humidified incubator with 5% CO2. The next day, test compounds were serially diluted to four times the final concentration in the appropriate medium containing 1.2% DMSO. One-fourth final volume of each dilution was added in duplicate to the plates containing cells. The same volume of 1.2% DMSO in medium was added to a row of “control wells” such that the final concentration of DMSO in each well was 0.3%. Wells to which no cells were added served as the “blank.” Wells to which no inhibitor was added served as “no inhibitor control.” The plates were) returned to the incubator, and at set time points (determined by their growth curves) plates were analyzed as described below.
3-(4,5-dimethylthiazole-2-yl)-2,5-diphenyl-2H-tetrazolium bromide (thiazolyl blue; MTT; Sigma) was added to each well to yield a final concentration of 1 mg/ml. Plates were returned to the incubator for 2.5-3 hours at 37° C. The MTT-containing medium was removed and the resulting formazan metabolite was solubilized in 100% ethanol with shaking for 15 minutes at room temperature. Absorbance readings were taken in a microtiter plate reader (Dynatech and Molecular Devices plate readers were used interchangeably) at a wavelength of 570 nm with a 650 nm reference. Percent inhibition (% INH) is calculated by subtracting the absorbance of the blank well from all wells, then subtracting the ratio of the average absorbance of each test duplicate (SAVE) by the average of the controls (CAVE) from 1.00. The final number is then multiplied by 100 (% INH=(1.00−SAVE/CAVE)×100).

human cyclin D1-CDK4, sequence (P11802 whole entry): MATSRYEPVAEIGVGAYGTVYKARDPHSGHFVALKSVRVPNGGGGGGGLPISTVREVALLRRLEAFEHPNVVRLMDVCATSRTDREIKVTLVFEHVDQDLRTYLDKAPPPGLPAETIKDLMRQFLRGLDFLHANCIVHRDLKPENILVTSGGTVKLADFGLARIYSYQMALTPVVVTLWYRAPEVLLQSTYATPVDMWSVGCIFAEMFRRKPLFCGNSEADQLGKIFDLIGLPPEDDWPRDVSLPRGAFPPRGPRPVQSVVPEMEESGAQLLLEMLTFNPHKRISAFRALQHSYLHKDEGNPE
human cyclin D1-CDK4, sequence (P24385 whole entry partner): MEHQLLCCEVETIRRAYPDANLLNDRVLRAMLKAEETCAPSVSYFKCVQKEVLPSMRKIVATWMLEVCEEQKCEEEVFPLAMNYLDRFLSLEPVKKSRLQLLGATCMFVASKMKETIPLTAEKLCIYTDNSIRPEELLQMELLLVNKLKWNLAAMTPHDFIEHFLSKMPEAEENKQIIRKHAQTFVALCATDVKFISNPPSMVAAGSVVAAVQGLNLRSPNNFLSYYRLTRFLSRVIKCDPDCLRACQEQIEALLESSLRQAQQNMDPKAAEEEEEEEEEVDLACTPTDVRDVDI
human cyclin B-CDK1, sequence (P06493 whole entry): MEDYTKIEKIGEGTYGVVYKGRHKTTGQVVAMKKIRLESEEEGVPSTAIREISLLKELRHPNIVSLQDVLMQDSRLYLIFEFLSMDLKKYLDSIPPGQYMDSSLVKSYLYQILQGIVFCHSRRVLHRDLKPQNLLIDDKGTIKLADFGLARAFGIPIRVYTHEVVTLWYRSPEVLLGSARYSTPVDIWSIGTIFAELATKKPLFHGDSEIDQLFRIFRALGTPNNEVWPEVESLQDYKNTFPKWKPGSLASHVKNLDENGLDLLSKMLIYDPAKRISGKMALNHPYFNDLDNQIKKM
human cyclin B-CDK1, sequence (P14635 whole entry partner): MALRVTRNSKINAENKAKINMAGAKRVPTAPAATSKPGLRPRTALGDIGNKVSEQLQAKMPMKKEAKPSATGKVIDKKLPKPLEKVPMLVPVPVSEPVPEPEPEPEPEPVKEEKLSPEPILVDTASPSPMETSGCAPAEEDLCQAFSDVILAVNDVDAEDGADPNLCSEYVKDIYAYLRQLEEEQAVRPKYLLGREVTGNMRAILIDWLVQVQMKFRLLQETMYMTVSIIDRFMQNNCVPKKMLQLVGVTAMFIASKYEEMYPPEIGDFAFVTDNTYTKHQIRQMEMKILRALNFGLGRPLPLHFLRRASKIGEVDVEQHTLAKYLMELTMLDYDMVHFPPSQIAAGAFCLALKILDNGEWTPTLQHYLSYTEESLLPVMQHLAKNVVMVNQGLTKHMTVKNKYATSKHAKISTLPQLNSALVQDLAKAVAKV

Row | IC50 (human cyclin D1-CDK4) [nM] | IC50 (human cyclin E-CDK2) [nM] | IC50 (human cyclin B-CDK1) [nM] | IC50 (HCT116) [nM] | Structure (SMILES)
1 | 4 | 9400 | 20100 | 9100 | CN1CCN(c2ccc(Nc3nc(N)c(C(=O)c4ccc(N5CCCCC5)cc4)s3)cc2)CC1 [Example 27, [4-Amino-2-[[4-(4-methyl-1-piperazinyl)phenyl]amino]-5-thiazolyl][4-(1-piperidinyl)phenyl]methanone]
2 | 14 | 800 | 1000 | 800 | COc1ccc(C(=O)c2sc(Nc3ccc(N4CCNCC4)cc3)nc2N)cc1F [Example 56, [4-Amino-2-[[4-(1-piperazinyl)phenyl]amino)-5-thiazolyl](3-fluoro-4-methoxyphenyl)methanone]
3 | 6 | 2600 | 2000 | 1900 | CN1CCN(c2ccc(Nc3nc(N)c(C(=O)c4ccc5c(c4)OCO5)s3)cc2F)CC1 [Example 38, [4-Amino-2-[[3-fluoro-4-(4-methyl-1-piperazinyl)phenyl]amino]-5-thiazolyl](1,3-benzodioxol-5-yl)methanone]
4 | 103 | 9600 | 15900 | 9500 | CN1CCN(c2ccc(Nc3nc(N)c(C(=O)c4ccc5c(c4)OCCCO5)s3)cc2)CC1 [Example 29, [4-Amino-2-[[4-(4-methyl-1-piperazinyl)phenyl]amino]-5-thiazolyl](3,4-dihydro-2H-1,5-benzodioxepin-7-yl)methanone]
5 | 43 | 900 | 500 | 2800 | CC(=O)N1CCN(c2ccc(Nc3nc(N)c(C(=O)c4ccc5c(c4)OCO5)s3)cc2)CC1 [Example 47, 1-Acetyl-4-[4-[[4-amino-5-[(1,3-benzodioxol-5-yl)carbonyl]-2-thiazolyl]amino]phenyl]piperazine]
6 | 20 | 4300 | 2500 | 3900 | CN1CCN(c2ccc(Nc3nc(N)c(C(=O)c4ccc5c(c4)OCCO5)s3)cc2)CC1 [Example 24, [4-Amino-2-[[4-(4-methyl-1-piperazinyl)phenyl]amino]-5-thiazolyl](2,3-dihydro-1,4-benzodioxin-6-yl)methanone]
7 | 25 | 5400 | 2100 | 2800 | COc1cccc(C(=O)c2sc(Nc3ccc(N4CCN(C)CC4)cc3)nc2N)c1 [Example 36, [4-Amino-2-[[4-(4-methyl-1-piperazinyl)phenyl]amino]-5-thiazolyl](3-methoxyphenyl)methanone]
8 | 73 | 6300 | 10000 | 6600 | CN1CCN(c2ccc(Nc3nc(N)c(C(=O)c4ccc(Cl)c(Cl)c4)s3)cc2)CC1 [Example 37, [4-Amino-2-[[4-(4-methyl-1-piperazinyl)phenyl]amino]-5-thiazolyl](3,4-dichlorophenyl)methanone]
9 | 9 | 1900 | 900 | 2100 | CN1CCN(c2ccc(Nc3nc(N)c(C(=O)c4ccc(NCCO)c([N+](=O)[O-])c4)s3)cc2)CC1 [Example 57, [4-Amino-2-[[4-(4-methyl-1-piperazinyl)phenyl]amino]-5-thiazolyl][4-(2-hydroxyethyl)amino-3-nitrophenyl]methanone]
10 | 28 | 700 | 1200 | 2300 | Nc1nc(Nc2ccc(N3CCN(CCO)CC3)cc2)sc1C(=O)c1cc(F)cc(F)c1 [Example 52, [4-Amino-2-[[4-[4-(2-hydroxyethyl)-1-piperazinyl]phenyl]amino]-5-thiazolyl](3,5-difluorophenyl)methanone]
11 | 50 | 3200 | 4300 | 3800 | Nc1nc(Nc2ccc(N3CCNCC3)cc2)sc1C(=O)c1ccc(N2CCCC2)cc1 [Example 55, [4-Amino-2-[[4-(1-piperazinyl)phenyl]amino]-5-thiazolyl][4-(1-pyrrolidinyl)phenyl]methanone]
12 | 19 | 2400 | 3900 | 3100 | CN1CCN(c2ccc(Nc3nc(N)c(C(=O)c4ccc(N5CCCC5)c([N+](=O)[O-])c4)s3)cc2)CC1 [Example 58, [4-Amino-2-[[4-(4-methyl-1-piperazinyl)phenyl]amino]-5-thiazolyl][3-nitro-4-(1-pyrrolidinyl)phenyl]methanone]
13 | 28 | 11900 | 1800 | 3800 | COc1cc(OC)cc(C(=O)c2sc(Nc3ccc(N4CCN(C(C)C)CC4)cc3)nc2N)c1 [Example 44, [4-Amino-2-[[4-[4-(1-methylethyl)-1-piperazinyl]phenyl]amino]-5-thiazolyl](3,5-dimethoxyphenyl)methanone]
14 | 21 | 7900 | 2800 | 3600 | COc1cc(OC)cc(C(=O)c2sc(Nc3ccc(N4CCN(C)CC4)c(F)c3)nc2N)c1 [Example 39, [4-Amino-2-[[3-fluoro-4-(4-methyl-1-piperazinyl)phenyl]amino]-5-thiazolyl](3,5-dimethoxyphenyl)methanone]
15 | 8 | 1800 | 1100 | 1800 | COc1ccc(C(=O)c2sc(Nc3ccc(N4CCN(C)CC4)cc3)nc2N)cc1F [Example 35, [4-Amino-2-[[4-(4-methyl-1-piperazinyl)phenyl]amino]-5-thiazolyl](3-fluoro-4-methoxyphenyl)methanone]
16 | 18 | 3500 | 500 | 3500 | CN1CCN(c2ccc(Nc3nc(N)c(C(=O)c4ccc5c(c4)OCO5)s3)cc2)CC1 [Example 25, [4-Amino-2-[[4-(4-methyl-1-piperazinyl)phenyl]amino]-5-thiazolyl](1,3-benzodioxol-5-yl)methanone]
17 | 44 | 5900 | 10000 | 4400 | CC1CCCN1c1ccc(C(=O)c2sc(Nc3ccc(N4CCN(C)CC4)cc3)nc2N)cc1[N+](=O)[O-] (racemic) [Example 62, [4-Amino-2-[[4-(4-methyl-1-piperazinyl)phenyl]amino]-5-thiazolyl][3-nitro-4-(2-methyl-1-pyrrolidinyl)phenyl]methanone]
18 | 14 | 3100 | 1300 | 3000 | COc1cccc(C(=O)c2sc(Nc3ccc(N4CCN(C)CC4)c(F)c3)nc2N)c1 [Example 40, [4-Amino-2-[[3-fluoro-4-(4-methyl-1-piperazinyl)phenyl]amino]-5-thiazolyl](3-methoxyphenyl)methanone]
19 | 13 | 200 | 300 | 700 | Nc1nc(Nc2ccc(N3CCNCC3)cc2)sc1C(=O)c1cccc(F)c1 [Example 54, [4-Amino-2-[[4-(1-piperazinyl)phenyl]amino]-5-thiazolyl](3-fluorophenyl)methanone]
